In article PMC7226045, “Ensartinib (X-396) Effectively Modulates Pharmacokinetic Resistance Mediated by ABCB1 and ABCG2 Drug Efflux Transporters and CYP3A4 Biotransformation Enzyme” (Cancers, 2020):
pIC50: −log10 of the molar value.

Tests used:
[1] = molecular target: T1, ABCC1 (Homo sapiens, UniProt P33527); assay: MDCKII monolayer transport assay, MDCKII-ABCC1; type: in vitro ADME; conditions: dog, 1 µM ensartinib, read-out: transport ratio (r), BA/AB
T1 construct: expressed in transfected cells; host or cells: MDCKII-ABCC1 (from Dr. Alfred Schinkel, The Netherlands Cancer Institute)
Description: (§1) Transport assays were performed on microporous polycarbonate membrane filters (3 µm pore size, 24 mm diameter, Transwell 3414; Costar, Corning, NY, USA) using MDCKII parental as well as ABCB1-, ABCG2-, and ABCC1-overexpressing MDCKII cells. The cells were seeded at a density of 1.5 × 10^6 cells per insert and cultured to full confluence for 7 days with media exchanges on the second and fourth days. Before the start of the transport experiments, inserts were washed with 1 × PBS on both the apical and basal sides. The cells were then preincubated in Opti-MEM with or without model inhibitors (1 µM LY335979, 1 µM Ko143, or 25 µM MK-571). […] Ensartinib levels in samples were measured by UHPLC-MS/MS (see below). […]
(§2) Samples from the monolayer transport assays (10 µL) were mixed with 100 µL of acetonitrile and 100 µL of methanol, vortexed for 15 min, and centrifuged at 14,500 rpm for 3 min. […] The MS source parameters were set to the following: drying gas, 320 °C, flow rate 10 l/min; sheath gas, 400 °C at 12 l/min; nebulizer pressure 25 psi; capillary voltage 4000 V; nozzle voltage 0 V. Transitions of [M+H]^+ ions were detected using a dwell time of 150 ms, a cell acceleration of 4 V, and fragmentor voltages of 137 V for 547→357, 257 and 120 transitions (corresponding to collision energies of 16, 32, and 56 V).

[2] = MDCKII monolayer transport assay, MDCKII-par; type: in vitro ADME, canine; conditions: dog, MDCK, 1 µM ensartinib, read-out: transport ratio (r), BA/AB
Description: as §1, §2

[3] = tested on: MDCKII-par cells; assay: substrate accumulation in control MDCKII-par cells; type: cell-based, canine; conditions: hoechst 33342, calcein AM, daunorubicin, mitoxantrone
Description: Cellular accumulation assay with hoechst 33342 and calcein AM was performed as described previously. Briefly, MDCKII-par, MDCKII-ABCB1, MDCKII-ABCG2, and MDCKII-ABCC1 cells were seeded at densities of 5.0 × 10^4, 5.0 × 10^4, 5.5 × 10^4, and 6.0 × 10^4 cells/well, respectively, on a transparent 96-well plate and grown to full confluence for 24 h under standard conditions. The cells were then washed twice with 1 × PBS, after which was added either a dilution of ensartinib in Opti-MEM (1, 5, 10, 25, or 50 µM) or a specific inhibitor to act as a positive control (1 µM LY335979, 1 µM Ko143, or 25 µM MK-571 for ABCB1, ABCG2, or ABCC1, respectively). […] The intracellular levels of the substrates were then determined at 1 min intervals for 30 min using a microplate reader (Infinite M200 Pro, Tecan, Männedorf, Switzerland). Fluorescence was monitored in bottom mode using excitation/emission wavelengths of 350/465 and 485/535 nm for hoechst 33342 and calcein AM, respectively.
The flow-cytometric inhibitory assay with daunorubicin and mitoxantrone was performed with minor modifications as described previously. […] Samples were then transferred into test-tubes and kept on ice until their fluorescence could be measured using a flow cytometer (BD FACSCanto II, Allschwil, Switzerland). […]

[4] = MTT proliferation assay, A431-ABCB1; type: cell-based; conditions: human, A431-ABCB1 cells, read-out: IC50, sensitivity to ensartinib
Description: MTT proliferation assay was performed as described previously.

[5] = molecular target: T2, ABCB1 (Homo sapiens, UniProt P08183); assay: hoechst 33342 accumulation assay in MDCKII-ABCB1 cells; type: cell-based; conditions: read-out: IC50, inhibition of ABCB1 (hoechst 33342 accumulation)
T2 construct: expressed in transfected cells; host or cells: MDCKII-ABCB1 (from Dr. Alfred Schinkel, The Netherlands Cancer Institute)
Description: Cellular accumulation assay with hoechst 33342 and calcein AM was performed as described previously. Briefly, MDCKII-par, MDCKII-ABCB1, MDCKII-ABCG2, and MDCKII-ABCC1 cells were seeded at densities of 5.0 × 10^4, 5.0 × 10^4, 5.5 × 10^4, and 6.0 × 10^4 cells/well, respectively, on a transparent 96-well plate and grown to full confluence for 24 h under standard conditions. The cells were then washed twice with 1 × PBS, after which was added either a dilution of ensartinib in Opti-MEM (1, 5, 10, 25, or 50 µM) or a specific inhibitor to act as a positive control (1 µM LY335979, 1 µM Ko143, or 25 µM MK-571 for ABCB1, ABCG2, or ABCC1, respectively). Cells were pre-incubated for 10 min, then 8 µM hoechst 33342 (a model substrate for ABCB1 and ABCG2) or 2 µM calcein AM (ABCC1 substrate) diluted in Opti-MEM was quickly added to all wells other than those containing blank samples. The intracellular levels of the substrates were then determined at 1 min intervals for 30 min using a microplate reader (Infinite M200 Pro, Tecan, Männedorf, Switzerland). Fluorescence was monitored in bottom mode using excitation/emission wavelengths of 350/465 and 485/535 nm for hoechst 33342 and calcein AM, respectively.

T2 sequence (P08183 whole entry): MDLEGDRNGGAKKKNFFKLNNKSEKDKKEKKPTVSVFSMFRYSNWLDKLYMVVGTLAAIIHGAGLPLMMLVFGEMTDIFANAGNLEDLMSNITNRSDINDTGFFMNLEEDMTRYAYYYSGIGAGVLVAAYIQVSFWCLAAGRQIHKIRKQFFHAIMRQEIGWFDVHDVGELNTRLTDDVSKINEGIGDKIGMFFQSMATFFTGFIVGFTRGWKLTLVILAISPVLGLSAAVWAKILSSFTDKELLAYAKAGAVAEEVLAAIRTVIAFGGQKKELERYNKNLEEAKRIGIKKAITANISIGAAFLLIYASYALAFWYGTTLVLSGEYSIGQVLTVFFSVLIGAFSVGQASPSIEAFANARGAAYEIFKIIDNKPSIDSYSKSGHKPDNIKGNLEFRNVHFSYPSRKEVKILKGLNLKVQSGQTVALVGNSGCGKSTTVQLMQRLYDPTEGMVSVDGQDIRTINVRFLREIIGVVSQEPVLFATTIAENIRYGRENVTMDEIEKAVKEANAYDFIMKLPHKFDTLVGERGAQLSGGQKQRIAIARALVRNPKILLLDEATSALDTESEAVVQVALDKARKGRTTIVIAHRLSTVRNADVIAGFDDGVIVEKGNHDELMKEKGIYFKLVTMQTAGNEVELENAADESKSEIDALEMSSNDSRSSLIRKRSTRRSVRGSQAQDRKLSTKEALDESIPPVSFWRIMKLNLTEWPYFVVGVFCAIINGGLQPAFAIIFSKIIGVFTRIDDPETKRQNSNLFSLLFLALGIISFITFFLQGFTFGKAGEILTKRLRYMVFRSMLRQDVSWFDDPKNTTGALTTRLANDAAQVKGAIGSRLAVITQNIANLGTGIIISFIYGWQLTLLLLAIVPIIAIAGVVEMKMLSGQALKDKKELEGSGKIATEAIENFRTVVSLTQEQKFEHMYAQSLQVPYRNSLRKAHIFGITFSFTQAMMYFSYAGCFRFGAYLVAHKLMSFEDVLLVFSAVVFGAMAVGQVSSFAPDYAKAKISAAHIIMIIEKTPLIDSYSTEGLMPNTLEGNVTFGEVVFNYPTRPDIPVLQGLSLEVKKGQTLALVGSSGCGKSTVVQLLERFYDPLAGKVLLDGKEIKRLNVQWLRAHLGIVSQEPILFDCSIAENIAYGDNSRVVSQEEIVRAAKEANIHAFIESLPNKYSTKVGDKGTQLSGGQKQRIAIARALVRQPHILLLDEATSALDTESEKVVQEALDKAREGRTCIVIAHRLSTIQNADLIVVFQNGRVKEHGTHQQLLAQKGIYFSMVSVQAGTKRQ
T1 sequence (P33527 whole entry): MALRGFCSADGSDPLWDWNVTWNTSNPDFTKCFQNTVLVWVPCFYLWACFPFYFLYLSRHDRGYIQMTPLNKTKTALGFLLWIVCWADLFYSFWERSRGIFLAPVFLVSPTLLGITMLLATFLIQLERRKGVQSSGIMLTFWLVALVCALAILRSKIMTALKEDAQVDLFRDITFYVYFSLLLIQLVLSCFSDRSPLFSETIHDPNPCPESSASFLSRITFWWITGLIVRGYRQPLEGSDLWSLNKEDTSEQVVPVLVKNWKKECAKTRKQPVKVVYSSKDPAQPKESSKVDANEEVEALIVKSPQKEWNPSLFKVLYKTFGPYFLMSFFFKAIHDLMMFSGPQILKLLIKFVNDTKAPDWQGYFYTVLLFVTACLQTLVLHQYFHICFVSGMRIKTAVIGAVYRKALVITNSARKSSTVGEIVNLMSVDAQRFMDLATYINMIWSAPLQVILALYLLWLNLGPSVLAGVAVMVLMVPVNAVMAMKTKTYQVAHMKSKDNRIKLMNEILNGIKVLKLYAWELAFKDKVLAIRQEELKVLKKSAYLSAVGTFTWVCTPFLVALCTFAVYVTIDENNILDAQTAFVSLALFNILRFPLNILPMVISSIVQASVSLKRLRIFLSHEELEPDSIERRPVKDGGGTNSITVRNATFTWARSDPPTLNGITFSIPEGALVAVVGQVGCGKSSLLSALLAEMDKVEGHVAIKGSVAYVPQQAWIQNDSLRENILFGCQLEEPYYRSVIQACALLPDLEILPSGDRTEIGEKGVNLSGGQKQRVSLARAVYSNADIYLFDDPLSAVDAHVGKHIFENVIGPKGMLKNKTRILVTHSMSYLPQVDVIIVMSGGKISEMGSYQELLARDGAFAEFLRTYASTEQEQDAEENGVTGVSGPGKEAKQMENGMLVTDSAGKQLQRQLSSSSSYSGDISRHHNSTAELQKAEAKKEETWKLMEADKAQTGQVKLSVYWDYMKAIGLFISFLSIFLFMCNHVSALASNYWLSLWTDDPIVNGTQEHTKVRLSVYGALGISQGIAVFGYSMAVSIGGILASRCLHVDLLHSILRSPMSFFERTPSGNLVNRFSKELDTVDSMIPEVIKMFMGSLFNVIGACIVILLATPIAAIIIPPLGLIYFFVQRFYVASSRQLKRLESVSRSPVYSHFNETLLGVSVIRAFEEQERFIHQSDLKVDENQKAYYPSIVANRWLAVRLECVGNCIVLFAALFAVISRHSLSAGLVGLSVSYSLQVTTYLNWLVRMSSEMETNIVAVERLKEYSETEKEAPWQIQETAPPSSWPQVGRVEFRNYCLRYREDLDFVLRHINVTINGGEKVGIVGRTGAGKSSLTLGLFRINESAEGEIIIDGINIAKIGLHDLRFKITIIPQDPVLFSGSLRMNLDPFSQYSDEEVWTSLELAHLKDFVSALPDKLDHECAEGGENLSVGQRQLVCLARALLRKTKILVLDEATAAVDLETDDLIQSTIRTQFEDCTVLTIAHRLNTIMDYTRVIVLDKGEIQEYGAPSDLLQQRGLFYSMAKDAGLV

C[C@@H]1CN(C(=O)c2ccc(NC(=O)c3cc(O[C@H](C)c4c(Cl)ccc(F)c4Cl)c(N)nn3)cc2)C[C@H](C)N1 [ensartinib, Ensartinib]
efflux ratio at 4 h, 1 µM [1]: 1.29 | efflux ratio at 4 h, 1 µM [2]: 1.01 | effect on the accumulation of any substrate in control cells [3]: no significant effect | IC50 at 48 h [4]: 2.79 µM | pIC50 [5]: 5.43
